ChEMBL document CHEMBL1201862, “PubChem BioAssay data set” (2004)
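Results reflect a 48-hour exposure of cells in 96-well plates to compound at five concentrations. The concentration for 50% growth inhibition is given as GI50.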 Active and inactive are the calls of the source. No stated cut-off is given here; in the data, active = GI50 up to about 1.1 µM and inactive = higher.

Assays:
Assay in all cases: NCI anticancer screen, dose series, 48 h
[1] = test system: K562
[2] = test system: SR
[3] = test system: UACC-62
[4] = test system: OVCAR-4
[5] = test system: LOX IMVI
[6] = test system: OVCAR-8
[7] = test system: TK-10
[8] = test system: M14
[9] = test system: SK-MEL-2
[10] = test system: NCI-H460
[11] = test system: MDA-MB-231
[12] = test system: DU-145
[13] = test system: IGROV-1
[14] = test system: MDA-MB-435
[15] = test system: CAKI-1
[16] = test system: SF-539
[17] = test system: HCT-116
[18] = test system: MOLT-4
[19] = test system: NCI-H23
[20] = test system: MCF7

Measured: GI50

COc1cc2c(c(OC)c1OC)-c1ccc(SC)c(=O)cc1C(NC=O)CC2 (configuration not stated)
inactive: [4] 66.4 µM | [7] 2.02 µM
active: [1] < 0.01 µM | [2] < 0.01 µM | [3] < 0.01 µM | [5] < 0.01 µM | [6] < 0.01 µM | [8] < 0.01 µM | [9] < 0.01 µM | [10] < 0.01 µM | [11] < 0.01 µM | [12] < 0.01 µM | [13] < 0.01 µM | [14] < 0.01 µM | [15] 0.0183 µM | [16] < 0.01 µM | [17] < 0.01 µM | [18] < 0.01 µM | [19] < 0.01 µM | [20] < 0.0107 µM

CC1(C)OC(CCC#N)CN1C(=O)OCc1ccccc1 (configuration not stated)
inactive: [1] > 100 µM | [2] > 100 µM | [3] > 100 µM | [4] > 100 µM | [5] > 100 µM | [6] > 100 µM | [7] > 100 µM | [8] > 100 µM | [9] > 100 µM | [10] > 100 µM | [11] > 100 µM | [12] > 100 µM | [13] > 100 µM | [14] > 100 µM | [15] > 100 µM | [16] > 100 µM | [17] > 100 µM | [18] > 100 µM | [19] > 100 µM | [20] > 100 µM

CC(C)(CO)CNc1nc(N)nc(Cl)c1/C=N/O
inactive: [1] 13.9 µM | [2] 24.1 µM | [3] 31.8 µM | [4] 34 µM | [5] 12.1 µM | [6] 31.6 µM | [7] 35 µM | [9] 39.7 µM | [10] 30 µM | [11] 25.8 µM | [12] 31.4 µM | [13] 13 µM | [14] 43.9 µM | [15] 23.8 µM | [16] 30.6 µM | [17] 10.2 µM | [18] 17 µM | [19] 3.45 µM | [20] 23.8 µM

Cc1cccc(Nc2nn3c(=O)c4c5c(sc4nc3s2)CCCC5)c1
active: [3] 0.647 µM
inactive: [1] 5.09 µM | [2] 25.4 µM | [4] 16 µM | [5] 3.33 µM | [6] 12.4 µM | [7] 37.7 µM | [8] 3.89 µM | [9] > 100 µM | [10] 6.24 µM | [11] 8.09 µM | [12] > 100 µM | [13] 43.4 µM | [14] 7.41 µM | [15] 9.93 µM | [16] > 100 µM | [17] 22.9 µM | [18] 48.4 µM | [19] 14 µM | [20] 6.17 µM

c1cc2nnc1SCCCSc1ccc(nn1)SCCCS2
inactive: [1] > 27.9 µM | [2] > 26 µM | [3] > 25.8 µM | [4] 16.1 µM | [5] > 21.9 µM | [6] > 39.6 µM | [7] 35.5 µM | [8] > 25.9 µM | [9] 24.7 µM | [11] 30 µM | [12] > 48 µM | [13] > 36.7 µM | [14] > 40.6 µM | [15] > 45.4 µM | [16] 23.5 µM | [17] 17.6 µM | [18] > 20.8 µM | [19] 34.8 µM | [20] 32.4 µM

CC(Oc1ccccc1Cl)C(=O)NN1C(=O)CSC1c1ccc(Cl)cc1 (configuration not stated)
active: [2] < 0.01 µM
inactive: [1] 6.73 µM | [3] 17.8 µM | [4] 13.7 µM | [5] 19.6 µM | [6] 23.4 µM | [7] 25.8 µM | [8] 18.4 µM | [9] 21.9 µM | [10] 25.4 µM | [11] 17.3 µM | [12] 18.2 µM | [13] 20.7 µM | [14] 16.4 µM | [15] 23.6 µM | [16] 24.8 µM | [17] 14.5 µM | [19] 19.3 µM | [20] 18.1 µM

Cc1csc2c1C(=O)c1ccsc1C2=O
inactive: [1] 2.85 µM | [2] 4.15 µM | [3] 1.69 µM | [4] 1.89 µM | [5] 1.26 µM | [6] 2.99 µM | [7] 19.1 µM | [9] 2.03 µM | [10] 1.87 µM | [11] 2.35 µM | [12] 1.88 µM | [13] 3.24 µM | [15] 19.6 µM | [16] 2.01 µM | [17] 2.17 µM | [18] 4.61 µM | [19] 1.16 µM | [20] 1.41 µM
active: [8] 0.778 µM | [14] 0.215 µM
